# Counter-ions that a name gives are not always drawn.
# Key:
# Assay type in all cases: physicochemical
# [1] = Stability comparison of different crystal forms by solid-state representation means (XRPD), 6 months
# Procedure: Embodiment 17. Stability Comparison of Different Crystal Forms Determined by Adopting Solid-State Representation Means
# The form A of mesylate for niacinamide derivatives prepared according to the method of the embodiment 4 and the needles solid of nicotinamide derivatives mesylate prepared according to the method of the embodiment 10 were respectively put in the environment with light, high humidity (relative humidity (RH) is 90%), room temperature and high temperature (60° C.) for 6 months, XRPD determination was performed by adopting a solid-state representation means, and examination results were shown in Table 3.
# [2] = Hygroscopicity determination by TGA after storage at room temperature, humidity 40%
# Procedure: Embodiment 11. Hygroscopicity Determination of the Contrast Needles Shape Solid of Nicotinamide Derivatives Mesylate
# The obtained compound referred in a Chinese patent CN101676267 was 180.2 g of white needle-like crystals (0.365 mol) with the molecular weight being 493.5. It can thus be seen that the contrast needles shape solid of nicotinamide derivatives mesylate was anhydrate. The white needles of nicotinamide derivatives mesylate were prepared according to the method of […], and a DSC-TGA pattern of the needles as shown in FIG. 2 was obtained. Wherein, the testing conditions of differential scanning calorimetry (DSC) were 10° C./min with range of 30-300° C., and TGA testing conditions were 10° C./min from room temperature to 350° C. A proper amount of the needle samples of nicotinamide derivatives mesylate were placed at the room temperature under the humidity condition of 40%, and TGA detection was conducted on the solid respectively at the time intervals of 24 hours, 48 hours and 72 hours.
# [3] = Solubility comparison of different crystal forms in water and ethanol
# Description: Embodiment 15. Solubility Comparison of Different Crystal Forms
# The form A of mesylate for niacinamide derivatives prepared according to the method of the embodiment 4 and the needle solid of nicotinamide derivatives mesylate prepared according to the method of the embodiment 10 were respectively dissolved in water and ethanol, and solubility results were shown in Table 1.
# [4] = Stability comparison of different crystal forms determined by HPLC, 6 months
# Procedure: Embodiment 16. Stability Comparison of Different Crystal Forms Determined by HPLC
# The form A of mesylate for niacinamide derivatives prepared according to the method of the embodiment 4 and the mesylate needles of nicotinamide derivatives prepared according to the method of the embodiment 10 were respectively put in the environment with light, high humidity (relative humidity (RH) is 90%), room temperature and high temperature (60° C.) for 6 months, the contents of related substances of the sample were determined by adopting HPLC, and examination results were shown in Table 2. HPLC testing conditions: chromatographic column Venusil MP-C18 (4.6 mm×250 mm, 5 μm, 100 Å); Mobile phase A: 0.1% acetum, B: acetonitrile, gradient conditions (0 min, 95% A; 20 min, 5% A; 25 min, 5% A; 30 min, 95% A); Detection wavelength 254 nm; Flowing speed 1 ml/min; Column temperature 30° C.; Sample amount 20 μl.
# [5] = High-temperature, high-humidity and light stability of the crystal form, XRPD after 5 days
# Procedure: Embodiment 14. Determination of High-Temperature Stability, High-Humidity Stability and Light Stability of the Mesylate Crystal Form A of Nicotinamide Derivatives of the Present Invention
# The mesylate crystal form A of nicotinamide derivatives prepared according to the method of the embodiment 4 was tested.
# (1) High-Temperature Stability
# (2) High-Humidity Stability
Crystal form after storage (XRPD) ([1]; 60° C. for 6 months),Crystal form after storage (XRPD) ([1]; Illuminating for 6 months),Hygroscopicity (conclusion in words) ([2]; 24-72 hours),TGA weight loss after storage under humidity ([2]; 24 hours),TGA weight loss after storage under humidity ([2]; 48 hours),TGA weight loss after storage under humidity ([2]; 72 hours),Water solubility [3],Contents of related substances of the sample by HPLC ([4]; 60° C. for 6 months),Contents of related substances of the sample by HPLC ([4]; Illuminating for 6 months),Contents of related substances of the sample by HPLC ([4]; RH90% for 6 months),Contents of related substances of the sample by HPLC ([4]; Room temperature for 6 months),Crystal form after storage (XRPD) ([1]; RH90% for 6 months),Crystal form after storage (XRPD) ([1]; Room temperature for 6 months),High-temperature stability (XRPD compared with FIG. 1) ([5]; airtight drying oven of 60° C.),"Light stability (XRPD compared with FIG. 1) ([5]; transparent container, light 4500 lux)",SMILES,"High-humidity stability (XRPD compared with FIG. 1) ([5]; airtight container, humidity 92.5%)"
Unchanged,Unchanged,a certain hygroscopicity,3.311%,3.191%,3.332%,Insoluble,98.2%,99.4%,98.8%,99.2%,–,–,–,–,"N#CC1(c2ccc(NC(=O)c3cccnc3NCc3ccncc3)cc2)CCCC1 [Contrast needles, N-[4-(1-cyanocyclopentyl)phenyl]-2-(4-pyridylmethyl) amidogen-3-pyridineethanamine]",–
Unchanged,Unchanged,–,–,–,–,Insoluble,98.1%,99.6%,98.5%,99.4%,Unchanged,Unchanged,good high-temperature stability,good light stability,N#CC1(c2ccc(NC(=O)c3cccnc3NCc3ccncc3)cc2)CCCC1 [The form A of mesylate for niacinamide derivatives of the pr] [N-[4-(1-cyanocyclopentyl)phenyl]-2-(4-pyridylmethyl) amidogen-3-pyridineethanamine],good stability in a high-humidity environment

# — patent US9988355B2, “Form A of mesylate for nicotinamide derivatives and preparation method and application thereof” (SHANGHAI SUNTRONG BIOTECHNOLOGY CO., LTD., priority 2014, dated 2018)
